According to PMC5122408, “High throughput chemical library screening identifies a novel p110-δ inhibitor that potentiates the anti-myeloma effect of bortezomib” (Oncotarget, 2016):

What was measured:
[1] = tested on: SNB-75; assay: NCI-60 panel cell growth screen; format: cell-based, human; details: SNB-75 (CNS Cancer)
[2] = tested on: A549; assay: NCI-60 panel cell growth screen; format: cell-based, human; details: A549 (NSCLC)
[3] = tested on: SNB-19; assay: NCI-60 panel cell growth screen; format: cell-based, human; details: SNB-19 (CNS Cancer)
[4] = tested on: SR; assay: NCI-60 panel cell growth screen; format: cell-based, human; details: SR (Leukemia)
[5] = biological target: p110-β (Homo sapiens, UniProt P42338); assay: Kinase inhibitory profile / PIP3 production
Method: To directly assess PI3K activity, PI3K was isolated by immunoprecipitation using an antibody to the p85 adapter subunit and the ability of the co-precipitated catalytic p110 subunit to convert PIP2 to PIP3 in a kinase reaction assessed by measuring the amount of PIP3 generated using a competitive ELISA [40, 41]. […] Lysates were centrifuged at 13,000 × rpm for 10 min and supernatants stored at −80°C. Frozen lysates were thawed and PI3K immunoprecipitated with 5 μl anti-PI3K p85 (Cell Signaling Technology, Danvers, MA) for 1 h at 4°C, followed by the addition of 60 μl of a 50% slurry of Protein A agarose beads for 1 h at 4°C. The immunoprecipitate was collected by centrifugation at 13,000 × rpm for 10 sec, washed 3 times in buffer A + 1% NP40, thrice with 0.1 M Tris-HCl, pH 7.4, 5 mM LiCl, 0.1 mM Na orthovanadate and twice with 10 mM Tris-HCl, pH 7.4, 150 mM NaCl, 5 mM ethylenediaminetetraacetic acid (EDTA), 0.1 mM Na orthovanadate. […] Reactions were incubated for 3 h at 37°C with 40 pmol PIP2 (Echelon Biosciences, Salt Lake City, UT). Reactions were stopped with EDTA (5 mM) and centrifuged at 13,000 × rpm at 4°C. Supernatants were transferred to a microtitre plate for a competitive ELISA (Echelon Biosciences) to quantify PIP3 generated. […] Absorbance was measured (450 nm) and PIP3 quantified using a standard curve generated with experimental samples and plotted on a log scale.

[6] = biological target: mTOR (Homo sapiens, UniProt P42345); assay: Kinase inhibitory profile; format: biochemical; details: Class IV PI3Ks; 10-point concentration assays
[7] = tested on: K-562; assay: NCI-60 panel cell growth screen; format: cell-based, human; details: K-562 (Leukemia)
[8] = tested on: SF-268; assay: NCI-60 panel cell growth screen; format: cell-based, human; details: SF-268 (CNS Cancer)
[9] = biological target: p110-δ (Homo sapiens, UniProt O00329); assay: Kinase inhibitory profile / PIP3 production; design: Inhibitory profile (kinase inhibition): key to the marks not given beside the values
[10] = tested on: AKT; assay: Immunoblot of AKT phosphorylation in MM cells; format: cell-based; details: DT97 500 nm or 1 uM for 48 h
[11] = tested on: KM12; assay: NCI-60 panel cell growth screen; format: cell-based, human; details: KM12 (Colon cancer)
[12] = tested on: HO-92; assay: NCI-60 panel cell growth screen; format: cell-based, human; details: HO-92 (NSCLC)
[13] = tested on: HCT-15; assay: NCI-60 panel cell growth screen; format: cell-based, human; details: HCT-15 (Colon cancer)
[14] = tested on: PDGFR; assay: Kinase inhibitory profile; format: biochemical; details: Other Clinically-relevant Kinases; 10-point concentration assays
[15] = biological target: p110-α (Homo sapiens, UniProt P42336); assay: Kinase inhibitory profile / PIP3 production; design: Inhibitory profile (kinase inhibition): key to the marks not given beside the values
[16] = tested on: EKVX; assay: NCI-60 panel cell growth screen; format: cell-based, human; details: EKVX (NSCLC)
[17] = biological target: ERBB4 (Homo sapiens, UniProt Q15303); assay: Kinase inhibitory profile; format: biochemical; details: Other Clinically-relevant Kinases; 10-point concentration assays
[18] = tested on: MM.1S myeloma cells; assay: Mouse xenograft model of myeloma; format: in vivo, mice; details: subcutaneous myeloma xenograft; intravenous; bortezomib 0.5 mg/kg, DT97 10 mg/kg
Method: Five week old nude mice flanks are injected subcutaneously with MM.1S myeloma cells. Tumors formed within two weeks and mice were then treated intravenously with vehicle, bortezomib, DT97 or both bortezomib and DT97.
Subcutaneous tumors were generated after injection of myeloma cells. […] Vehicle or bortezomib was administered on days 1, 4, 8 and 11. Mice were euthanized when tumors reached 2 cm^3, became ulcerated or elicited neurologic or musculoskeletal complications that limited mobility and feeding. Survival and tumor growth were evaluated from the first day of treatment. Shown is the average of replicate measurements. […] Kaplan-Meier survival curves comparison of NOD. SCID mice after subcutaneous injection of parental myeloma cells treated with vehicle, DT97, bortezomib or both.
Mice received intravenous injection of either vehicle (PBS in 10% DMSO); bortezomib (0.5 mg/kg), DT97 (10 mg/kg) or both bortezomib and DT97. Tumor volume (TV) measurements were made using a vernier caliper and calculated using the formula: TV = 0.5 (a × b^2) where a is the long diameter and b the short diameter. Mice were euthanized when tumors reached 2 cm^3, became ulcerated or elicited neurologic or musculoskeletal complications that limited mobility and feeding.
In vivo statistical tests were performed using the 2-tailed Student t test.

[19] = biological target: DNA-PK (Homo sapiens, UniProt P78527); assay: Kinase inhibitory profile; format: biochemical; details: Class IV PI3Ks; 10-point concentration assays
[20] = tested on: HCT-116; assay: NCI-60 panel cell growth screen; format: cell-based, human; details: HCT-116 (Colon cancer)
[21] = tested on: AMPK; assay: Kinase inhibitory profile; format: biochemical; details: Other Clinically-relevant Kinases; 10-point concentration assays
[22] = tested on: MM cells; assay: Transwell chemotaxis of CFSE-labeled MM cells toward BMSCs; format: cell-based; details: counted at 72 h
Source text: BMSCs induce the migration and homing (chemotaxis) of MM cells to BM. […] MM cells were placed in the upper chamber separated from BMSCs in the lower chamber by a semi-permeable membrane. […] It appears that DT97 treatment prevents MM migration, in part, through the reduction of cytokine production.

[23] = read-out: LC50 (the source's name)
[24] = Class I PI3Ks, 10-point concentration assays

Sequence of p110-δ (O00329 whole entry): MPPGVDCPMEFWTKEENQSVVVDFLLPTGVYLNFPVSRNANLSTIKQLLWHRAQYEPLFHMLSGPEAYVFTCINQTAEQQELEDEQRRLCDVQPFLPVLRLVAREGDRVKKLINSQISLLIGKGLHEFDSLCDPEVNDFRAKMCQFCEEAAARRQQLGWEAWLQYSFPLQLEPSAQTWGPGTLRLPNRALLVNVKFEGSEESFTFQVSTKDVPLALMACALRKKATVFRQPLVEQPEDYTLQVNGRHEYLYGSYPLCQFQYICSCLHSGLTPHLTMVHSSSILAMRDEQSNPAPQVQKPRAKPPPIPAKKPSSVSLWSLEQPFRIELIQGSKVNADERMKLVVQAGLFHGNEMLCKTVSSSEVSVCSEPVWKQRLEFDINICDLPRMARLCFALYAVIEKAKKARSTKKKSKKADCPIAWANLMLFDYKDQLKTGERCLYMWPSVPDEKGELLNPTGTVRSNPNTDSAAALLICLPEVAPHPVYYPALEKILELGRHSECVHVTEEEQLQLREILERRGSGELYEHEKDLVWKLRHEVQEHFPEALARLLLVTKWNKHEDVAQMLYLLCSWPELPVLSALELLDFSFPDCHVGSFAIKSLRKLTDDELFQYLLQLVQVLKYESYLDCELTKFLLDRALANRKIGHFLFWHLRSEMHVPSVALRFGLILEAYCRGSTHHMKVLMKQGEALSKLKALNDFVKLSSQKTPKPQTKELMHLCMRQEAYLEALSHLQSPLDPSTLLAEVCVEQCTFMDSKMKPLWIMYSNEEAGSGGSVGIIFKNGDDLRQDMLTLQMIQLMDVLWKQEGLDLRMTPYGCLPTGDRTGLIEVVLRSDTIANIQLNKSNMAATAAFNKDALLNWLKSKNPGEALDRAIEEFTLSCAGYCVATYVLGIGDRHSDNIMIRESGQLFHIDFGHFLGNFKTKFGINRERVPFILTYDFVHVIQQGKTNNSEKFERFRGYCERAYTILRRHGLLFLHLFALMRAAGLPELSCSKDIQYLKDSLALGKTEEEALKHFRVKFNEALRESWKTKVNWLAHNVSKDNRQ
Sequence of p110-δ (P27986 whole entry partner): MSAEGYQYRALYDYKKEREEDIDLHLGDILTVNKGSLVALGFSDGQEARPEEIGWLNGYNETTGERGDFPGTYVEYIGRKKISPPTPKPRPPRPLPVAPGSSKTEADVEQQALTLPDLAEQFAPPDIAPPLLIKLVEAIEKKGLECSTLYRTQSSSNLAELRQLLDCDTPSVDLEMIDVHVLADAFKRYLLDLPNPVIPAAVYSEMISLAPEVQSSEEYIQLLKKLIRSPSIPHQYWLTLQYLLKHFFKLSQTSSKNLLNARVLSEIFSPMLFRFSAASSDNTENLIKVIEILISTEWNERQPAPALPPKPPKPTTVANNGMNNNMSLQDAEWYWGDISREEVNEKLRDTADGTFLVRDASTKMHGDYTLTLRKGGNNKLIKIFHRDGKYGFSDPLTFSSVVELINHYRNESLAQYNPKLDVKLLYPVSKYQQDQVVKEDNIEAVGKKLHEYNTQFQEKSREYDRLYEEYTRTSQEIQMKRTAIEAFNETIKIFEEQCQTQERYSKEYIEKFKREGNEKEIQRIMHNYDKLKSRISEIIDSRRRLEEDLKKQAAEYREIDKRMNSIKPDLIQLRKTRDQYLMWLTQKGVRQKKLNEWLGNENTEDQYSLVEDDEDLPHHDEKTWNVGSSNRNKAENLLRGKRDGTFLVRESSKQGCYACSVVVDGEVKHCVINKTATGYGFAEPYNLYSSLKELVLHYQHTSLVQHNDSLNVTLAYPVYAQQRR
Sequence of p110-β (P42338 whole entry): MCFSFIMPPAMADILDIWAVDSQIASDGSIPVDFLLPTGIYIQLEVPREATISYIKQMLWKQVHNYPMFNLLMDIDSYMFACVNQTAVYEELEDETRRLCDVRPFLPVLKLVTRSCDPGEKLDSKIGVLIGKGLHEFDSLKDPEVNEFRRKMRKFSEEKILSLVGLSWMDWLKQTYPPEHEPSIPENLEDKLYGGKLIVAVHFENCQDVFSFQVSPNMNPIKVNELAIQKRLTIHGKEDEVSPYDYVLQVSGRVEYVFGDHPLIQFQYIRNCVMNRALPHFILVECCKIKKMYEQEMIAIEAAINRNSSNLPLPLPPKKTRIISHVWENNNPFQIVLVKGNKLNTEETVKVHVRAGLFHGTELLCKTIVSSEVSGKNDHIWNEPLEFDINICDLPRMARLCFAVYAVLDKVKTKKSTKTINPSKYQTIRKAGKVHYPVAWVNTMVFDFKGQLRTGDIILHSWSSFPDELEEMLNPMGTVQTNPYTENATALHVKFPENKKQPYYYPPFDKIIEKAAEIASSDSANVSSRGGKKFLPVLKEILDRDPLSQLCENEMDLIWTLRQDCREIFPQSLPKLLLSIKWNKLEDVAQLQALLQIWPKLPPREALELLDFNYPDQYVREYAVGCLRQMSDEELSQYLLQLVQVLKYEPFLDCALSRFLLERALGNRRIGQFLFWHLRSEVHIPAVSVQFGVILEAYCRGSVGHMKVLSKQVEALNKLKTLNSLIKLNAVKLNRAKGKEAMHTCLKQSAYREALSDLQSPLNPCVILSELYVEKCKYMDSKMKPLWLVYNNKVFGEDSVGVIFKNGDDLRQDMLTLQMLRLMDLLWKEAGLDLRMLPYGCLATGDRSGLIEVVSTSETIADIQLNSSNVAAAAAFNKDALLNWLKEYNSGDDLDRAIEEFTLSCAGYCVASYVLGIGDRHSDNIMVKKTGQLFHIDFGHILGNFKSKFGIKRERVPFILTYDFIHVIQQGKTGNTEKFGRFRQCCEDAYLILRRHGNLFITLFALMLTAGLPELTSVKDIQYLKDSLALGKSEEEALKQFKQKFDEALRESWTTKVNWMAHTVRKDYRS
Sequence of p110-β (P27986 whole entry partner): as the sequence (P27986 whole entry partner) above
Sequence of p110-α (P42336 whole entry): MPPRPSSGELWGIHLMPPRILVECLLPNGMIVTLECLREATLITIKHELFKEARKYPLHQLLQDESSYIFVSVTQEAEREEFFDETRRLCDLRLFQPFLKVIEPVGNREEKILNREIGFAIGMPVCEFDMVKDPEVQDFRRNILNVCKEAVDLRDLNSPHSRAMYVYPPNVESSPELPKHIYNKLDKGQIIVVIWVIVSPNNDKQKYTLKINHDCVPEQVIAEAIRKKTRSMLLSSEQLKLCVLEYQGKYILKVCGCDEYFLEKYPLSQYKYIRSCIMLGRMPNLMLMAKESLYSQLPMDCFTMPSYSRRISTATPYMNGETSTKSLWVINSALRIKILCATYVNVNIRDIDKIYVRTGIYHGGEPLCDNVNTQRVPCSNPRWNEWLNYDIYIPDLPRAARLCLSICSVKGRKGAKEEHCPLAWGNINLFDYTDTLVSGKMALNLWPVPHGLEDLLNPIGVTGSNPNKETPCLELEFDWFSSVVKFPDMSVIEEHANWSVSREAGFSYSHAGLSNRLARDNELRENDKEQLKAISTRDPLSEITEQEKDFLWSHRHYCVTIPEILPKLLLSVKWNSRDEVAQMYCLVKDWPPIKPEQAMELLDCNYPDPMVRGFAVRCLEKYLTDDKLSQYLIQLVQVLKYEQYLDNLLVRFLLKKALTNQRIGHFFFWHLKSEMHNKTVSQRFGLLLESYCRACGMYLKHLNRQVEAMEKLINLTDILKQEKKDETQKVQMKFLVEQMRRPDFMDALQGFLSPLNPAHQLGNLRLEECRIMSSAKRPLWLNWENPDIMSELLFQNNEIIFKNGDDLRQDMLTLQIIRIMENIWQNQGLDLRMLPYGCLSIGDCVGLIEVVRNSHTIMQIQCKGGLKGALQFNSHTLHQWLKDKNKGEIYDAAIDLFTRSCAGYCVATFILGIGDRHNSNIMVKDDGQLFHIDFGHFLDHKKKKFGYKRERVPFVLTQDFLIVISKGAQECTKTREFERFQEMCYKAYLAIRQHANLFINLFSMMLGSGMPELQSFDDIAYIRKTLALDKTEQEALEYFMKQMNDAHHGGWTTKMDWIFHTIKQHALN
Sequence of p110-α (P27986 whole entry partner): as the sequence (P27986 whole entry partner) above

Substance: N-[4-hydroxy-3-(8-quinolinylthio)-1-naphthyl]benzenesulfonamide [DT97]
- GI50 [1]: 3.23 µM
- TGI [1]: 1.69E-5
- Percent Growth ([1]; log concentration −4.0): −100%
- Percent Growth ([1]; log concentration −5.0): 29%
- Percent Growth ([1]; log concentration −6.0): 75%
- Percent Growth ([1]; log concentration −7.0): 73%
- Percent Growth ([1]; log concentration −8.0): 76%
- CC50 [1, 23]: 41.2 µM
- GI50 [2]: 747 nM
- TGI [2]: 1.81E-5
- Percent Growth ([2]; log concentration −4.0): −46%
- Percent Growth ([2]; log concentration −5.0): 16%
- Percent Growth ([2]; log concentration −6.0): 41%
- Percent Growth ([2]; log concentration −7.0): 112%
- Percent Growth ([2]; log concentration −8.0): 106%
- GI50 [3]: 1980 nM
- TGI [3]: 2.14E-5
- Percent Growth ([3]; log concentration −4.0): −59%
- Percent Growth ([3]; log concentration −5.0): 29%
- Percent Growth ([3]; log concentration −6.0): 59%
- Percent Growth ([3]; log concentration −7.0): 94%
- Percent Growth ([3]; log concentration −8.0): 95%
- CC50 [3, 23]: 78.3 µM
- GI50 [4]: 426 nM
- TGI [4]: 1.72E-5
- Percent Growth ([4]; log concentration −4.0): −15%
- Percent Growth ([4]; log concentration −5.0): 5%
- Percent Growth ([4]; log concentration −6.0): 13%
- Percent Growth ([4]; log concentration −7.0): 113%
- Percent Growth ([4]; log concentration −8.0): 109%
- CC50 [4, 23]: > 100 µM
- Inhibitory profile (kinase inhibition) [5, 24]: none
- production of PIP3 (dose-dependent effect) ([5]; p110-β isoform, Figure 4B): no effect
- Inhibitory profile (kinase inhibition) [6]: +
- GI50 [7]: 929 nM
- TGI [7]: 1.65E-5
- Percent Growth ([7]; log concentration −4.0): −12%
- Percent Growth ([7]; log concentration −5.0): 3%
- Percent Growth ([7]; log concentration −6.0): 48%
- Percent Growth ([7]; log concentration −7.0): 111%
- Percent Growth ([7]; log concentration −8.0): 108%
- CC50 [7, 23]: > 100 µM
- GI50 [8]: 1480 nM
- TGI [8]: 1.28E-5
- Percent Growth ([8]; log concentration −4.0): −68%
- Percent Growth ([8]; log concentration −5.0): 8%
- Percent Growth ([8]; log concentration −6.0): 59%
- Percent Growth ([8]; log concentration −7.0): 100%
- Percent Growth ([8]; log concentration −8.0): 98%
- CC50 [8, 23]: 57.7 µM
- Inhibitory profile (kinase inhibition) [9, 24]: +++
- production of PIP3 (dose-dependent effect) ([9]; p110-δ isoform, Figure 4B): most potently
- phosphorylation of AKT at Ser308/Thr473 [10]: reduced the phosphorylation
- GI50 [11]: 2030 nM
- TGI [11]: 1.65E-5
- Percent Growth ([11]; log concentration −4.0): −87%
- Percent Growth ([11]; log concentration −5.0): 24%
- Percent Growth ([11]; log concentration −6.0): 61%
- Percent Growth ([11]; log concentration −7.0): 104%
- Percent Growth ([11]; log concentration −8.0): 104%
- CC50 [11, 23]: 46.6 µM
- GI50 [12]: 2610 nM
- TGI [12]: 7.38E-6
- Percent Growth ([12]; log concentration −4.0): −89%
- Percent Growth ([12]; log concentration −5.0): −15%
- Percent Growth ([12]; log concentration −6.0): 96%
- Percent Growth ([12]; log concentration −7.0): 77%
- Percent Growth ([12]; log concentration −8.0): 84%
- CC50 [12, 23]: 29.8 µM
- GI50 [13]: 464 nM
- TGI [13]: 2.50E-6
- Percent Growth ([13]; log concentration −4.0): −70%
- Percent Growth ([13]; log concentration −5.0): −40%
- Percent Growth ([13]; log concentration −6.0): 27%
- Percent Growth ([13]; log concentration −7.0): 97%
- Percent Growth ([13]; log concentration −8.0): 100%
- CC50 [13, 23]: 21.2 µM
- Inhibitory profile (kinase inhibition) [14]: none
- Inhibitory profile (kinase inhibition) [15, 24]: ++
- production of PIP3 (dose-dependent effect) ([15]; p110-α isoform, Figure 4B): weaker activity
- GI50 [16]: 1010 nM
- TGI [16]: 8.55E-6
- Percent Growth ([16]; log concentration −4.0): −99%
- Percent Growth ([16]; log concentration −5.0): −4%
- Percent Growth ([16]; log concentration −6.0): 50%
- Percent Growth ([16]; log concentration −7.0): 93%
- Percent Growth ([16]; log concentration −8.0): 97%
- Inhibitory profile (kinase inhibition) [17]: +
- overall survival (OS) [18]: 16 days
- Inhibitory profile (kinase inhibition) [19]: +
- GI50 [20]: 555 nM
- TGI [20]: 2.80E-6
- Percent Growth ([20]; log concentration −4.0): −92%
- Percent Growth ([20]; log concentration −5.0): −43%
- Percent Growth ([20]; log concentration −6.0): 34%
- Percent Growth ([20]; log concentration −7.0): 95%
- Percent Growth ([20]; log concentration −8.0): 98%
- CC50 [20, 23]: 14.1 µM
- Inhibitory profile (kinase inhibition) [21]: +
- migration of MM cells into the lower chambers with BMSCs [22]: reduced the migration
